Test results from paper PMC7374938 (Journal of medicinal chemistry, 2017).
Structures can show the parent of a compound that is named as a salt.

How the values were obtained:
[1] = biological target: T1, human 5-HT2C-INI receptor (Homo sapiens, UniProt P28335); assay: Calcium flux assay; format: cell-based; conditions: for 5-HT2C EC50: Table 1, FLIPR calcium flux, calculated from averaged pEC50; for Emax: read-out: 5-HT2C Emax, Table 1, normalized to % 5-HT, mean ± SEM (n = 3), NA = no activity up to 10 μM
T1 sequence (P28335 33-458): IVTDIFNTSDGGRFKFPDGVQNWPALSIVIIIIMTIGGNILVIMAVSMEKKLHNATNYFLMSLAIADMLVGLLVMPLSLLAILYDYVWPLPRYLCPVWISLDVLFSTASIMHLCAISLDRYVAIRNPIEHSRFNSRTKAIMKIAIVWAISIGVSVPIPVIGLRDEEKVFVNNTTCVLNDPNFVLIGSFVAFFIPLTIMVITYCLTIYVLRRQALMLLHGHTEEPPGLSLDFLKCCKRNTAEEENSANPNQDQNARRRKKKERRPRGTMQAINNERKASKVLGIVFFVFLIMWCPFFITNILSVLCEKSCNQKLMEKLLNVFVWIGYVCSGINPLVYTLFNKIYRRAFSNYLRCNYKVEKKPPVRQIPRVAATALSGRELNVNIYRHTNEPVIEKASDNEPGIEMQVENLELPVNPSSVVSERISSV

5-HT2B [2] = biological target: T2, 5-HT2B (Homo sapiens, UniProt P41595); assay: Calcium flux assay; format: cell-based
[3] = biological target: T1, human 5-HT2C-INI receptor; assay: Tango β-arrestin-2 recruitment assay; format: cell-based; conditions: for β-arrestin recruitment activity: 5-HT2C
5-HT2C [4] = biological target: T3, 5-HT2C (Homo sapiens, UniProt P28335); assay: Binding affinity
T3 sequence (P28335 33-458): T1 sequence (P28335 33-458)

[5] = tested on: serotonin receptors, dopamine receptors, monoamine transporters, and other selected CNS targets; assay: Off-target binding panel; conditions: panel of CNS targets
C57BL/6J mice [6] = assay: Baseline; format: in vivo, mouse; conditions: 0–15 min, male C57BL/6J mice
C57BL/6J mice [7] = assay: Amphetamine; format: in vivo, mouse; conditions: AMPH 3 mg/kg, 90 min
C57BL/6J mice [8] = assay: Phencyclidine; format: in vivo, mouse; conditions: PCP 5 mg/kg, 60 min
CYP2D6 = CYP2D6 (Homo sapiens, UniProt P10635); assay: in vitro; conditions: human liver microsomes, probe dextromethorphan
CYP3A4 = CYP3A4 (Homo sapiens, UniProt P08684); assay: in vitro; conditions: human liver microsomes, probe midazolam
5-HT2A [9] = biological target: T4, 5-HT2A (Homo sapiens, UniProt P28223); assay: Calcium flux assay; format: cell-based; conditions: read-out: 5-HT2A Emax
[10] = cited from earlier work
5-HT2B [11] = biological target: T2, 5-HT2B; conditions: cited from earlier work
5-HT2A [12] = biological target: T4, 5-HT2A; conditions: cited from earlier work
5-HT2C [13] = biological target: T3, 5-HT2C; conditions: cited from earlier work

T2 sequence (P41595 whole entry): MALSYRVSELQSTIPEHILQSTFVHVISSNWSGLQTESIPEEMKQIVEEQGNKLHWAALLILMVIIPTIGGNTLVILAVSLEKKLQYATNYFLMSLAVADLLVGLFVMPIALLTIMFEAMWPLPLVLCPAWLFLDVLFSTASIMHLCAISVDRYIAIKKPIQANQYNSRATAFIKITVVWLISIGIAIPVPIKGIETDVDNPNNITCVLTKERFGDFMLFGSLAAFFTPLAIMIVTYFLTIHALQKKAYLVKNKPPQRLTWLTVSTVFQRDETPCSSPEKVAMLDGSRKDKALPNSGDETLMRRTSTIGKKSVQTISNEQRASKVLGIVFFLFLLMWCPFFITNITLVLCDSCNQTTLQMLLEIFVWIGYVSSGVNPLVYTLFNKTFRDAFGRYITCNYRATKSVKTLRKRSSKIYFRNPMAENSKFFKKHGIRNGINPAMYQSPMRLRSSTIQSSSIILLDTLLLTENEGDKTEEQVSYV
T4 sequence (P28223 whole entry): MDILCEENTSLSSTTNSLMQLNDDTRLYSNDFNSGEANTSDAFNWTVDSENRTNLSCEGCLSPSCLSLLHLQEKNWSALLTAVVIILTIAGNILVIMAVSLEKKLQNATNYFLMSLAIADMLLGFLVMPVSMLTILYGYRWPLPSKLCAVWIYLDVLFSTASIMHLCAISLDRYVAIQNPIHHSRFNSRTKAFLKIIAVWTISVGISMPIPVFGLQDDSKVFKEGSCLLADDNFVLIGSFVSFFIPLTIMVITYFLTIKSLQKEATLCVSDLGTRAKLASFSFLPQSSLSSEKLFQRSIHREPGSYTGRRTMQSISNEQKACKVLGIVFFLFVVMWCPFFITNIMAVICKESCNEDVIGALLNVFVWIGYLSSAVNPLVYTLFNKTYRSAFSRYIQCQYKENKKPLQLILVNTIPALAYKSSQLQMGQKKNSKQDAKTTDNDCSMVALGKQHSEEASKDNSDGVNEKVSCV
Sequence of CYP3A4 (P08684 whole entry): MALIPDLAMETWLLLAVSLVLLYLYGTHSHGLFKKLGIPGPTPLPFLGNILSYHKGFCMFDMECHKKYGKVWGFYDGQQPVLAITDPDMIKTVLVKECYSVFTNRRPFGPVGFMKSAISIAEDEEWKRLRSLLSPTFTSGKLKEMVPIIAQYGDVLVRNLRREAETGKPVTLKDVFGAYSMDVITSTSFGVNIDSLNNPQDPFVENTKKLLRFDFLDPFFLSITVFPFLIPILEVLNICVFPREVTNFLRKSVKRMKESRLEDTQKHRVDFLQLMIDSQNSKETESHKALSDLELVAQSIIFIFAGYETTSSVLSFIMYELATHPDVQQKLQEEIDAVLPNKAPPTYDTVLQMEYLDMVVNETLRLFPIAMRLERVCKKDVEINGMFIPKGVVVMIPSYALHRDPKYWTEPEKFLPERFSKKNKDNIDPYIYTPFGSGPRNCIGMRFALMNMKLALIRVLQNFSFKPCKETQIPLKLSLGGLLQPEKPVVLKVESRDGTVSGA
Sequence of CYP2D6 (P10635 whole entry): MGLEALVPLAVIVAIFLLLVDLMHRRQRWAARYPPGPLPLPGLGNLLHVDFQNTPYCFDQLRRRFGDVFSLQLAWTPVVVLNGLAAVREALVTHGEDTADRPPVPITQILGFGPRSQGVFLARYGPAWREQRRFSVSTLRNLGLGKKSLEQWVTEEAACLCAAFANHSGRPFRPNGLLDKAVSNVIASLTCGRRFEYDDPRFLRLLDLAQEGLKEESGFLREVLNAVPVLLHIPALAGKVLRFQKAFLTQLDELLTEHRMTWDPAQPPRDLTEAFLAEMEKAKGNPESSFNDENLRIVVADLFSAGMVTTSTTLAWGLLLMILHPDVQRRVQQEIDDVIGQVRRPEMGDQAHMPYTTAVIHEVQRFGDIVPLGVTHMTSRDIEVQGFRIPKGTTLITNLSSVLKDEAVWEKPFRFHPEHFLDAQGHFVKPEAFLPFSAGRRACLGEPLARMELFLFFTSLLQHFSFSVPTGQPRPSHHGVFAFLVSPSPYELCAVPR

COc1ccc(F)cc1C1CC1CNCC1CC1.Cl (racemic) [(±)-17, 1-Cyclopropyl-N-[[2-(5-fluoro-2-methoxyphenyl)cyclopropyl]methyl]methanamine Hydrochloride]
EC50 [1]: > 0.3 µM
5-HT2C EC50 [1]: lack of activity

COc1ccc(F)cc1C1CC1CNCc1ccccc1O.Cl (racemic) [(±)-22, 2-[[[[2-(5-Fluoro-2-methoxyphenyl)cyclopropyl]methyl]amino]methyl]phenol Hydrochloride]
selectivity for 5-HT2C over 5-HT2B (5-HT2B [2]): full selectivity

COc1ccc(F)cc1C1CC1CNCc1ccccc1C#N (racemic) [(±)-24, 2-[[[[2-(5-Fluoro-2-methoxyphenyl)cyclopropyl]methyl]amino]methyl]benzonitrile Hydrochloride]
Emax [1]: < 35%

COc1ccc(F)cc1C1CC1CNCc1ccccc1C(N)=O (racemic) [(±)-25, 2-[[[[2-(5-Fluoro-2-methoxyphenyl)cyclopropyl]methyl]amino]methyl]benzamide Hydrochloride]
Emax [1]: < 35%

COc1ccccc1CN(C)CC1CC1c1cc(F)ccc1OC.Cl (racemic) [(±)-28, 1-[2-(5-Fluoro-2-methoxyphenyl)cyclopropyl]-N-(2-methoxybenzyl)-N-methylmethanamine Hydrochloride]
reduction of 5-HT2C potency compared to the parent compound (+)-19 ([1]; racemate vs (+)-19): 15 fold

COc1ccc(F)cc1C1CC1CNCc1cccc2cc[nH]c12.Cl (racemic) [(±)-38, 1-[2-(5-Fluoro-2-methoxyphenyl)cyclopropyl)-N-[(1H-indol-7-yl)methyl]methanamine Hydrochloride]
5-HT2C EC50 [1]: entirely inactive

CNC[C@H]1C[C@@H]1c1cc(F)ccc1OC.Cl [(+)-15a, (+)-1-[(1S,2S)-2-(5-Fluoro-2-methoxyphenyl)cyclopropyl]-N-methylmethanamine Hydrochloride]
β-arrestin recruitment activity [3]: no β-arrestin recruitment activity
Ki (5-HT2C [4]): 0.081 µM

COc1ccccc1CNC[C@H]1C[C@@H]1c1cc(F)ccc1OC.Cl [(+)-19, (+)-1-[(1S,2S)-2-(5-Fluoro-2-methoxyphenyl)cyclopropyl]-N-(2-methoxybenzyl)methanamine Hydrochloride]
off-target affinity [5]: None of the other screened targets were found to display any significant off-target affinity
baseline locomotion (C57BL/6J mice [6]; 10 mg/kg IP): had no effect
baseline locomotion (C57BL/6J mice [6]; 20 mg/kg IP): had no effect
effect on amphetamine-induced hyperactivity (C57BL/6J mice [7]; 10 mg/kg IP): no significant effect
effect on amphetamine-induced hyperactivity (C57BL/6J mice [7]; 20 mg/kg IP): decreased the hyperlocomotion
effect on PCP-induced hyperactivity (C57BL/6J mice [8]; 10 mg/kg IP): increased locomotion
effect on PCP-induced hyperactivity (C57BL/6J mice [8]; 20 mg/kg IP): had no effect on PCP-induced hyperlocomotion
inhibition at 10 µM (CYP2D6): > 50%
inhibition at 10 µM (CYP3A4): > 50%

COc1ccc(F)cc1[C@H]1C[C@@H]1CNCc1cccs1.Cl [(+)-32, (+)-1-[(1S,2S)-2-(5-Fluoro-2-methoxyphenyl)cyclopropyl]-N-(thiophen-2-ylmethyl)methanamine Hydrochloride]
selectivity for 5-HT2C over 5-HT2B (5-HT2B [2]): full selectivity
β-arrestin recruitment activity [3]: no β-arrestin recruitment activity

COc1ccc(F)cc1[C@@H]1C[C@H]1CNCc1ccccc1Cl [(−)-27, (–)-N-(2-Chlorobenzyl)-1-[(1R,2R)-2-(5-fluoro-2-methoxyphenyl)cyclopropyl]methanamine Hydrochloride]
Emax (5-HT2A [9]): 84 ± 3.9%

COc1cc(CC(C)N)c(OC)cc1I (stereo not shown) [DOI]
effect on the locomotor effects of PCP [10]: potentiate the locomotor effects of PCP

CNc1nc(Cc2ccccc2)nc2c1CCNC[C@@H]2C [PF-4479745]
agonism at 5-HT2B (5-HT2B [11]): no measurable agonism
agonism at 5-HT2A (5-HT2A [12]): no measurable agonism

CNc1nc(Cc2ccccc2)cc2c1CCNCC2 [PF-04781340]
5-HT2C Emax (5-HT2C [13]): 99%
EC50 (5-HT2C [13]; read-out: 5-HT2C EC50): 0.009 µM
selectivity over 5-HT2B (5-HT2B [11]): about 160 fold

C[C@H]1CNCCc2ccc(Cl)cc21 [lorcaserin, reference compound]
Emax ([3]; read-out: β-arrestin-2 Emax): 97 ± 2.1%
baseline locomotion (C57BL/6J mice [6]; 3 mg/kg IP): decreased baseline locomotion
effect on amphetamine-induced hyperactivity (C57BL/6J mice [7]; 3 mg/kg IP): reduced amphetamine-induced hyperactivity
effect on PCP-induced hyperactivity (C57BL/6J mice [8]; 3 mg/kg IP): no overall reduction in activity that was statistically significant
